Patent publication US11535597B2, “Photoreactive ligands and uses thereof” (The Scripps Research Institute, priority 2017, dated 2022)
Entries after “also recorded” stand apart in the source; their conditions may differ.

Experiments:
[1] = biological target: T1, α-galactosidase (GLA) (Homo sapiens, UniProt P06280); test: Mapping of FFF probe-modified peptides on α-galactosidase (GLA); assay type: binding; details: near the active site and a secondary ligand binding site, respectively
T1 construct: endogenous in cells; host or cells: human cells (HEK293T; a subset of probes also in K562)
T1 sequence (P06280 32-429): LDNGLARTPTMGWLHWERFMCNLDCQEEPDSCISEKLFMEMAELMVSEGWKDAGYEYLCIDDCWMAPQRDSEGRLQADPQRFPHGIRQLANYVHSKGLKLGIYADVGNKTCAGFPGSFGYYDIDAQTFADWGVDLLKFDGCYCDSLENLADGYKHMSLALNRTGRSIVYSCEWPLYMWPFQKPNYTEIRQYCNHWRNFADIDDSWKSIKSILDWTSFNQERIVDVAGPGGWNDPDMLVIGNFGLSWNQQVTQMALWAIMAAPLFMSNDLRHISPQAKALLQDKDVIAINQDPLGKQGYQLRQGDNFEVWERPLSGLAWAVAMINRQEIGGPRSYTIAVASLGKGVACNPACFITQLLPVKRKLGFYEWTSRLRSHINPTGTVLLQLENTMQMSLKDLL
Description: (§1) Preparation and analysis was adapted from methods previously reported. In brief, for global mapping of fragment probe-modified peptides, separate 10 cm dishes of cells were treated with probes (200-250 μM) in 3.0 mL of DMEM (serum-free) and (if applicable) competitor ligands, proteomes harvested and subjected to click chemistry conditions with either light or heavy isotopically labeled biotin-TEV-azide (10 μL of 5 mM stocks in DMSO, final concentration=100 μM), TCEP, ligand and CuSO4 as detailed above. The samples were allowed to react for 1 h at which point the samples were centrifuged (16,000 g, 5 min, 4° C.). The resulting pellets were sonicated in ice-cold methanol (500 μL) and the resuspended light- and heavy-labeled samples were then combined and centrifuged (16,000 g, 5 min, 4° C.). The pellets were then solubilized in PBS containing 1.2% SDS (1 mL) with sonication and heating (5 min, 95° C.). Samples were transferred to falcon tubes containing DPBS (5 mL), to which a 100 μL of streptavidin-agarose beads slurry was added. After incubation, the beads (3 hr) were pelleted by centrifugation (1,400 g, 3 min) and were washed (2×10 mL PBS and 2×10 mL water). The beads were transferred to eppendorf tubes with 1 mL DPBS, centrifuged (1,400 g, 3 min), and resuspended in PBS containing 6 M urea. To this was added 10 mM DTT (25 μL of a 200 mM stock in water) and the beads were incubated at 65° C. for 15 mins. 20 mM iodoacetamide (25 μL of a 400 mM stock in water) was then added and allowed to react at 37° C. for 30 mins with shaking. The bead mixture was diluted with 900 μL PBS, pelleted by centrifugation (1,400 g, 3 min), and resuspended in 200 μL 2M urea (DPBS) containing trypsin and CaCl2 as described above. The beads were separated from the digest by centrifugation (1,000 g, 1 min), washed (2×1 mL PBS and 2×1 mL water) and then transferred to fresh eppendorfs with 1 mL water. The washed beads were washed once further in 150 μL TEV buffer (50 mM Tris, pH 8, 0.5 mM EDTA, 1 mM DTT) by centrifugation (1,400 g, 3 min) and the resuspended in 150 μL TEV buffer. 5 μL TEV protease (80 μM) was added and the reactions were rotated overnight at 29° C. The TEV digest was separated from the beads by centrifugation (1,400 g, 3 min) and the beads were washed once with water (100 μL). The samples were then acidified to a final concentration of 5% (v/v) formic acid and stored at −80° C. prior to analysis.
(§2) The resulting probe-modified peptides were collected for MS analysis, which was performed as described above with differences in the salt bumps applied in the chromatographic gradients which in this case were 0%, 30%, 60%, 90% and 100% NH4OAc (500 μM). […] The isoTOP ratios for probe labeled peptides were quantified using the in-house software CIMAGE. […]

[2] = biological target: T2, YWHAE (Homo sapiens, UniProt P62258); test: Mapping of FFF probe-modified peptide on YWHAE; assay type: binding; details: for Labeled Peptide (residues) of YWHAE 14-3-3 protein epsilon: P62258, PDB 3UBW
T2 construct: endogenous in cells; host or cells: human cells (HEK293T; a subset of probes also in K562)
T2 sequence (P62258 1-255): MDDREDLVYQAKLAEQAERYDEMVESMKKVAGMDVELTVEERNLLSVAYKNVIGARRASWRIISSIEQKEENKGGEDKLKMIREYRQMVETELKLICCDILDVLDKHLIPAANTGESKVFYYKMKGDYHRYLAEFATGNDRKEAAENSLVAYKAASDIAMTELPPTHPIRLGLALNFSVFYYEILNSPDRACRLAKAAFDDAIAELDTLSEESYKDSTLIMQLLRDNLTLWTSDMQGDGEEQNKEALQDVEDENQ
Description: as §1, with “The beads were separated from the digest by centrifugation (1,000 g, 1 min), washed (2×1 mL PBS and 2×1 mL water) and then transferred to fresh eppendorfs with 1 mL water. The washed beads were washed once further in 150 μL TEV buffer (50 mM Tris, pH 8, 0.5 mM EDTA, 1 mM DTT) by centrifugation (1,400 g, 3 min) and the resuspended in 150 μL TEV buffer. 5 μL TEV protease (80 μM) was added and the reactions were rotated overnight at 29° C. The TEV digest was separated from the beads by centrifugation (1,400 g, 3 min) and the beads were washed once with water (100 μL). The samples were then acidified to a final concentration of 5% (v/v) formic acid and stored at −80° C. prior to analysis.” left out
as §2

| SMILES | probe-modified peptides in GLA [1] | Labeled Peptide (residues) of YWHAE 14-3-3 protein epsilon ([2]; peptide AAFDDAIAELDTLSEESYK) | Labeled Peptide (residues) of YWHAE 14-3-3 protein epsilon ([2]; peptide EAAENSLVAYK) | probe-modified peptide in YWHAE ([2]; lines the primary interaction cleft for MLF1) |
| --- | --- | --- | --- | --- |
| C#CCCC1(CCC(=O)Nc2ccc(C3CCNCC3)cc2)N=N1 [probe 9, 3-(3-(But-3-yn-1-yl)-3H-diazirin-3-yl)-N-(4-(piperidin-4-yl)phenyl)propanamide] | aa 50-68; also recorded: aa 241-253 | – | – | – |
| C#CCCC1(CCC(=O)N2CCCCC2Cc2ccccc2)N=N1 (stereo not shown) [probe 13, 1-(2-Benzylpiperidin-1-yl)-3-(3-(but-3-yn-1-yl)-3H-diazirin-3-yl)propan-1-one] | – | 197-215 | 143-153 | aa 197-215 |
